The NIST ThermoML archive (doi:10.1016/j.jct.2016.06.016)

Assay: xn = mol fraction of the nth substance listed
Conditions: 100 kPa, Liquid; for viscosity: Concentric cylinders viscometry; for mass density: Vibrating tube method

CCOC(=O)CCC(=O)OCC [diethyl butanedioate] + CCCCO
Conditions	mass density [kg/m3]	viscosity [mPa·s]
288.15 K, x1 = 0.1	851.32	2.665
288.15 K, x1 = 0.2001	884.48	2.382
288.15 K, x1 = 0.3	913.45	2.302
288.15 K, x1 = 0.3999	938.87	2.306
288.15 K, x1 = 0.5	961.37	2.342
288.15 K, x1 = 0.6001	981.44	2.405
288.15 K, x1 = 0.6998	999.46	2.515
288.15 K, x1 = 0.7999	1015.94	2.692
288.15 K, x1 = 0.8997	1031	2.934
288.15 K, x1 = 1	1044.83	3.195
293.15 K, x1 = 0.1	847.26	2.339
293.15 K, x1 = 0.2001	880.14	2.106
293.15 K, x1 = 0.3	908.86	2.041
293.15 K, x1 = 0.3999	934.12	2.045
293.15 K, x1 = 0.5	956.51	2.077
293.15 K, x1 = 0.6001	976.5	2.133
293.15 K, x1 = 0.6998	994.45	2.228
293.15 K, x1 = 0.7999	1010.87	2.38
293.15 K, x1 = 0.8997	1025.85	2.585
293.15 K, x1 = 1	1039.63	2.807
298.15 K, x1 = 0.1	843.14	2.072
298.15 K, x1 = 0.2001	875.78	1.877
298.15 K, x1 = 0.3	904.32	1.825
298.15 K, x1 = 0.3999	929.42	1.831
298.15 K, x1 = 0.5	951.69	1.861
298.15 K, x1 = 0.6001	971.57	1.914
298.15 K, x1 = 0.6998	989.44	2.003
298.15 K, x1 = 0.7999	1005.79	2.141
298.15 K, x1 = 0.8997	1020.71	2.318
298.15 K, x1 = 1	1034.44	2.491
303.15 K, x1 = 0.1	838.99	1.845
303.15 K, x1 = 0.2001	871.41	1.682
303.15 K, x1 = 0.3	899.78	1.64
303.15 K, x1 = 0.3999	924.74	1.649
303.15 K, x1 = 0.5	946.87	1.678
303.15 K, x1 = 0.6001	966.65	1.727
303.15 K, x1 = 0.6998	984.43	1.806
303.15 K, x1 = 0.7999	1000.71	1.925
303.15 K, x1 = 0.8997	1015.58	2.078
303.15 K, x1 = 1	1029.25	2.229
308.15 K, x1 = 0.1	834.83	1.65
308.15 K, x1 = 0.2001	867.03	1.515
308.15 K, x1 = 0.3	895.21	1.482
308.15 K, x1 = 0.3999	920.02	1.492
308.15 K, x1 = 0.5	942.04	1.52
308.15 K, x1 = 0.6001	961.72	1.564
308.15 K, x1 = 0.6998	979.42	1.635
308.15 K, x1 = 0.7999	995.63	1.741
308.15 K, x1 = 0.8997	1010.45	1.876
308.15 K, x1 = 1	1024.08	2.008
313.15 K, x1 = 0.1	830.64	1.49
313.15 K, x1 = 0.2001	862.62	1.379
313.15 K, x1 = 0.3	890.63	1.355
313.15 K, x1 = 0.3999	915.3	1.366
313.15 K, x1 = 0.5	937.2	1.394
313.15 K, x1 = 0.6001	956.78	1.437
313.15 K, x1 = 0.6998	974.41	1.502
313.15 K, x1 = 0.7999	990.55	1.596
313.15 K, x1 = 0.8997	1005.31	1.712
313.15 K, x1 = 1	1018.9	1.821
318.15 K, x1 = 0.1	826.42	1.337
318.15 K, x1 = 0.2001	858.18	1.245
318.15 K, x1 = 0.3	886.02	1.226
318.15 K, x1 = 0.3999	910.54	1.239
318.15 K, x1 = 0.5	932.33	1.266
318.15 K, x1 = 0.6001	951.83	1.307
318.15 K, x1 = 0.6998	969.38	1.367
318.15 K, x1 = 0.7999	985.47	1.451
318.15 K, x1 = 0.8997	1000.18	1.556
318.15 K, x1 = 1	1013.72	1.66
323.15 K, x1 = 0.1	822.17	1.218
323.15 K, x1 = 0.2001	853.72	1.142
323.15 K, x1 = 0.3	881.38	1.129
323.15 K, x1 = 0.3999	905.78	1.143
323.15 K, x1 = 0.5	927.46	1.169
323.15 K, x1 = 0.6001	946.87	1.208
323.15 K, x1 = 0.6998	964.35	1.264
323.15 K, x1 = 0.7999	980.38	1.342
323.15 K, x1 = 0.8997	995.05	1.435
323.15 K, x1 = 1	1008.55	1.523
